Experiment [1] in a line: Pooled analysis of double-blind, placebo-controlled, non-diabetic studies of at least 6 months duration in subjects with metabolic syndrome at baseline. The experiment is classed as in vivo, human. Conditions: compared to placebo; change from baseline to latest assessment after month 6 up to month 12. An excerpt: (§1) The benefits of sibutramine therapy can be extended to subjects with metabolic syndrome. The treatment effect of sibutramine on subjects that had metabolic syndrome at study entry in the STORM trial and by a pooled analysis of double-blind, placebo-controlled, non-diabetic studies of at least 6 months duration were studied. Subjects were identified who had increased abdominal obesity (waist circumference), decreased HDL cholesterol, and elevated triglycerides (TG) at baseline, and who also completed at least 6 months of sibutramine treatment (pooled analysis subjects: 266 sibutramine, 134 placebo; STORM: 80 sibutramine). Since all subjects in the STORM trial received sibutramine for the first 6 months of the study, only subjects subsequently randomized to receive sibutramine for a longer duration were included. The analyses for each variable were based on change from baseline to latest assessment after month 6, up to and including month 12.

A short description of experiment [2]: STORM trial subjects that had metabolic syndrome at study entry. Format: in vivo, human. Conditions: sibutramine treatment group, 80 subjects; change from baseline to latest assessment after month 6 up to month 12.
From the text: as §1

The conditions of experiment [3]: cited from earlier work.
The conditions of experiment [4]: compared to placebo; cited from earlier work.
[5] abbreviates: subjects who lost and maintained weight, compared to the baseline values of all subjects.

The text below walks through data of patent publication US20050032908A1, “Methods for treating metabolic syndrome” (priority 2003, published 2005).

Structures are written as SMILES. Like-named read-outs stand apart in the source and are kept apart here.

With `CC(C)CC(N(C)C)C1(c2ccc(Cl)cc2)CCC1` (centres unmarked) [sibutramine, N,N-dimethyl-1-[1-(4-chlorophenyl)cyclobutyl]-3-methylbutylamine], in experiment [1], the HDL result was “clinically and statistically significant improvements”; the TG result was “clinically and statistically significant improvements”; the waist circumference entry was “clinically and statistically significant improvements”; the weight loss entry is “clinically and statistically significant improvements”. In experiment [2], the HDL result is “favorable changes”, the TG entry is recorded as “favorable changes”, the waist circumference result is “favorable changes” and the weight loss entry was “favorable changes”. Further, the “subjects who maintained ≧10% weight reduction” value in experiment [3] (at the end of two years of treatment, placebo 21%) is reported as 46%. Moreover, the “subjects who maintained ≧5% weight reduction” value in experiment [3] (at the end of two years of treatment, placebo 44%) was 69%. Besides, the “mean fasting insulin levels” value in experiment [3] (at two years) was “reduced”. Moreover, in experiment [3] (at two years, placebo 16%), the “subjects who completed the trial and maintained at least 80% of their month six weight loss” value was 43%. Moreover, in experiment [3] (first six months, subjects achieving ≧5% weight reduction), the mean weight loss is listed as 26 lbs. For the same molecule, the “subjects who achieved a ≧5% weight reduction” value in experiment [3] (of the 499 subjects who completed the first six months, sibutramine with reduced calorie diet and increased physical activity) is reported as 94%. Also, in experiment [3] (setting [5]), the HDL cholesterol entry is “clinically and statistically significant improvements”; the triglycerides entry was “clinically and statistically significant improvements”; the waist circumference result was “clinically and statistically significant improvements”. Besides, the impaired fasting glucose result in experiment [3] (two years) is “significantly changed”. Moreover, in experiment [4], the HDL cholesterol entry is reported as “significant improvements”, the “fasting blood glucose levels” value is “not significantly changed”, the insulin levels result is recorded as “significant improvements” and the triglyceride levels entry is recorded as “significant improvements”. Also, the “waist circumference (a measure for abdominal obesity)” value in experiment [4] is “significant improvements”.
